Eight compounds from PubChem BioAssay (NCI) can be followed below.

Some test systems named below: BT-549 breast; EKVX NSCLC; KM12 colon; LOX IMVI melanoma; M14 melanoma; MALME-3M melanoma; MOLT-4 leukemia; OVCAR-3 ovarian; SK-OV-3 ovarian; SR leukemia.
What all share (test): NCI tumour cell line growth inhibition, 48 h

The structures appear in SMILES notation. “And” between values parts separate entries of the source, which are not always exact repeats. Equal entries are not always repeated.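 Exposure lasted 48 hours, with cells grown in 96-well plates and compounds tested at five concentrations. The concentration for 50% growth inhibition is given as GI50. Definition used: TGI = concentration required for complete inhibition of growth.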

As for `COc1cc(O)c2c(O)c3c(c4c2c1[C@]1(C4)C(C)=CCCC1(C)C)[C@H](O)[C@@]1(O)CC(=O)C(C(N)=O)=C(O)[C@@]1(O)C3=O`, the TGI in the assay on BT-549 breast is 1.54 µM; in the assay with EKVX NSCLC, 1.06 µM; in the assay on KM12 colon it was 1.24 µM; with LOX IMVI melanoma, 1.71 µM; in the assay with M14 melanoma, 1.58 µM; with MALME-3M melanoma, 0.675 µM. For the same compound, the TGI amounted to 1.76 µM in the assay with MOLT-4 leukemia, 1.38 µM in the assay on OVCAR-3 ovarian, 1.43 µM in the assay on SK-OV-3 ovarian and 1.45 µM in the assay on SR leukemia.

Regarding `Cn1cncc1[C@@](N)(c1ccc(Cl)cc1)c1ccc2c(c1)c(-c1cccc(Cl)c1)cc(=O)n2C`, the GI50 in the assay on BT-549 breast is 3.16 µM; in the assay on EKVX NSCLC, 2.22 µM; with KM12 colon it was 1.18 µM; in the assay on LOX IMVI melanoma, 1.34 µM; in the assay on M14 melanoma it was 0.0818 µM; with MALME-3M melanoma, 0.901 µM. The GI50 in the assay with MOLT-4 leukemia was 2.33 µM; in the assay with OVCAR-3 ovarian, 2.55 µM; in the assay on SK-OV-3 ovarian, 7.24 µM; in the assay with SR leukemia it was 0.165 µM. Besides, the TGI in the assay with BT-549 breast turned out to be 14.4 µM; in the assay with EKVX NSCLC it was 13.1 µM; in the assay with KM12 colon, 7.02 µM; in the assay with LOX IMVI melanoma it was 5.36 µM; in the assay on M14 melanoma it was 11.1 µM; in the assay on MALME-3M melanoma, 12.1 µM. In addition, the TGI was found to be 7.97 µM in the assay on MOLT-4 leukemia, 7.86 µM in the assay with OVCAR-3 ovarian, 21.2 µM in the assay on SK-OV-3 ovarian and 4.32 µM in the assay with SR leukemia.

With `Cc1nn(-c2nc3ccccc3s2)c(C)c1Oc1ccccc1O`, the GI50 in the assay on BT-549 breast is 12 µM; in the assay with EKVX NSCLC, 10.4 µM; in the assay on KM12 colon it was 6.99 µM; in the assay with LOX IMVI melanoma, 2.87 µM; in the assay on M14 melanoma it was 11.8 µM; with MALME-3M melanoma, 12.6 µM. The GI50 in the assay on MOLT-4 leukemia is 2.56 µM; in the assay with OVCAR-3 ovarian it was 9.98 µM; in the assay with SK-OV-3 ovarian, 7.57 µM; in the assay with SR leukemia, 0.536 µM. In addition, the TGI worked out at 25.5 µM in the assay on BT-549 breast; 22.3 µM in the assay on EKVX NSCLC; 20.1 µM in the assay with KM12 colon; 16.9 µM with LOX IMVI melanoma; 24.8 µM in the assay on M14 melanoma; 25.6 µM in the assay on MALME-3M melanoma. In addition, the TGI was found to be 12.5 µM in the assay on MOLT-4 leukemia, 21.5 µM with OVCAR-3 ovarian, 24.8 µM with SK-OV-3 ovarian and 2.05 µM in the assay with SR leukemia.

For `CC1=NN(c2ccccc2)C(=O)C1N=Nc1ccc([As](=O)(O)O)c(O)c1` (stereo not drawn), the TGI in the assay with BT-549 breast, in the assay with EKVX NSCLC, in the assay on KM12 colon, with LOX IMVI melanoma, with M14 melanoma and with MALME-3M melanoma was greater than 100 µM in each case. The TGI with MOLT-4 leukemia, with OVCAR-3 ovarian, with SK-OV-3 ovarian and with SR leukemia was greater than 100 µM in each case.

With `CCC(C)(C)C(=O)O[C@H]1C[C@@H](C)C=C2C=C[C@H](C)[C@H](CC[C@@H]3C[C@@H](O)CC(=O)O3)[C@H]21`, the GI50 in the assay on BT-549 breast was 4.61 µM; in the assay on EKVX NSCLC it was 2.78 µM; in the assay with KM12 colon it was 11.2 µM; in the assay on LOX IMVI melanoma it was 0.39 µM; with M14 melanoma, 2.89 µM; in the assay on MALME-3M melanoma, 13.9 µM. For the same compound, the GI50 with MOLT-4 leukemia was 14.6 µM; in the assay on OVCAR-3 ovarian it was 8.77 µM; in the assay on SK-OV-3 ovarian, 7.56 µM; in the assay on SR leukemia it was 1.72 µM. Besides, the TGI with BT-549 breast was 18.2 µM; in the assay on EKVX NSCLC, 19.3 µM and > 30 µM; in the assay with KM12 colon, 24.1 µM and > 30 µM; in the assay on LOX IMVI melanoma it was 6.43 µM; in the assay with M14 melanoma, 16.7 µM and 8.09 µM; in the assay on MALME-3M melanoma, 30.5 µM. For the same compound, the TGI is 31.7 µM and > 30 µM with MOLT-4 leukemia; 21.4 µM and > 30 µM in the assay on OVCAR-3 ovarian; 21 µM and > 30 µM in the assay with SK-OV-3 ovarian; 13.1 µM and > 30 µM in the assay with SR leukemia.

As to `CCN(CC)CCCC(C)Nc1cnc(C(=O)Nc2ccc(Cl)c3cccnc23)cn1` (stereo not drawn), the GI50 in the assay on BT-549 breast was 1.59 µM; with EKVX NSCLC, 3.98 µM; in the assay with KM12 colon, 3.79 µM; in the assay on LOX IMVI melanoma it was 1.78 µM; with M14 melanoma, 1.79 µM; with MALME-3M melanoma it was 1.82 µM. The GI50 in the assay on MOLT-4 leukemia was 1.33 µM; in the assay with OVCAR-3 ovarian it was 2.01 µM; in the assay on SK-OV-3 ovarian, 12.9 µM; in the assay on SR leukemia, 1.18 µM. The TGI with BT-549 breast came to 3.08 µM; with EKVX NSCLC, 17.2 µM; in the assay with KM12 colon, 13.3 µM; in the assay on LOX IMVI melanoma, 3.3 µM; with M14 melanoma, 3.59 µM; in the assay with MALME-3M melanoma it was 3.3 µM. The TGI in the assay on MOLT-4 leukemia was 3.3 µM; with OVCAR-3 ovarian, 3.97 µM; in the assay with SK-OV-3 ovarian it was 26 µM; in the assay on SR leukemia, 4.12 µM.

As for `Oc1ccc2cc(Br)ccc2c1-c1c(O)ccc2cc(Br)ccc12`, the GI50 with BT-549 breast was 3.86 µM; in the assay on EKVX NSCLC, 3.54 µM; with KM12 colon it was 2.93 µM; in the assay on LOX IMVI melanoma, 1.81 µM; in the assay with M14 melanoma, 3.91 µM; in the assay on MALME-3M melanoma it was 2.19 µM. Moreover, the GI50 in the assay on MOLT-4 leukemia is 2.83 µM; in the assay on OVCAR-3 ovarian, 3.21 µM; in the assay with SK-OV-3 ovarian, 4.72 µM; with SR leukemia, 2.52 µM. The TGI in the assay on BT-549 breast turned out to be 12.4 µM; in the assay with EKVX NSCLC it was 13.5 µM; with KM12 colon it was 10.4 µM; with LOX IMVI melanoma, 3.41 µM; with M14 melanoma it was 14 µM; in the assay with MALME-3M melanoma, 6.05 µM. For the same compound, the TGI worked out at 11 µM in the assay with MOLT-4 leukemia, 9.77 µM in the assay on OVCAR-3 ovarian, 17.3 µM with SK-OV-3 ovarian and 7.43 µM in the assay with SR leukemia.

`COC(=O)NC1C(C)OC(OC2C/C=C(/C)C3C=CC4C(OC5CC(OC6CC(O)C(OC7CC(O)C(OC)C(C)O7)C(C)O6)C(O)C(C)O5)C(C)CC(C)C4C3(C)/C(O)=C3\C(=O)OC4(CC(C)C(CO)=CC4/C=C\2C)C3=O)CC1(C)[N+](=O)[O-]` (stereo not drawn): the TGI in the assay with BT-549 breast is 41.4 µM; in the assay on EKVX NSCLC it was 50 µM and 19.3 µM; with KM12 colon it was 16.6 µM and 25.2 µM; in the assay on LOX IMVI melanoma, 28 µM; in the assay on M14 melanoma it was 17.2 µM and 32.7 µM; in the assay with MALME-3M melanoma, 15.8 µM and 17.8 µM. For the same compound, the TGI with MOLT-4 leukemia was 50 µM and 20.2 µM; with OVCAR-3 ovarian, 21 µM and 19.4 µM; in the assay on SK-OV-3 ovarian, 50 µM and 20.9 µM; in the assay with SR leukemia, 50 µM and > 100 µM. Besides, the GI50 with EKVX NSCLC is 16.7 µM; in the assay with KM12 colon it was 9.15 µM; in the assay with M14 melanoma, 16.9 µM; in the assay with MALME-3M melanoma, 8.88 µM; with MOLT-4 leukemia, 18.2 µM; with OVCAR-3 ovarian, 9.64 µM. Further, the GI50 is 10.3 µM in the assay on SK-OV-3 ovarian and 23.2 µM in the assay on SR leukemia.
